Source: BigSolDB 2.1

CS(=O)(=O)c1ccc(C(=O)C2C(=O)CCCC2=O)c([N+](=O)[O-])c1
solubility (mole fraction)
Details	283.15 K	288.15 K	293.15 K	298.15 K	303.15 K	308.15 K	313.15 K	318.15 K	323.15 K
in 2-pentanol	0.000571	0.00081	0.00114	0.00158	0.00216	0.00294	0.00396	0.00561	0.00671
in MTBE	0.000245	0.000282	0.000322	0.000367	0.000397	0.000473	0.000536	0.000606	0.000684
in cyclohexane	0.000321	0.000402	0.000486	0.000616	0.000733	0.000888	0.00104	0.00122	0.00168
in ethanol	0.0023	0.00264	0.00316	0.00386	0.00455	0.00535	0.00627	0.00734	0.00857
in ethyl acetate	0.000565	0.000707	0.000879	0.00109	0.00132	0.00163	0.00198	0.00239	0.00287
in methanol	0.00351	0.00401	0.00457	0.00518	0.00567	0.00663	0.00748	0.00842	0.00946
in methyl acetate	0.00134	0.00152	0.00173	0.00194	0.00225	0.00255	0.00293	0.0033	0.00381
in n-butanol	0.000708	0.000999	0.00139	0.00193	0.00273	0.00355	0.00476	0.00601	0.00731
in n-butyl acetate	0.000418	0.000529	0.000664	0.000829	0.00103	0.00127	0.00155	0.0019	0.00231
in n-pentanol	0.000635	0.000889	0.00123	0.00168	0.00228	0.00306	0.00407	0.00536	0.007
in n-propanol	0.0013	0.00168	0.00216	0.00274	0.00376	0.00434	0.0054	0.00669	0.00793
in sec-butanol	0.000341	0.000507	0.000745	0.00108	0.00145	0.00199	0.00307	0.00425	0.00584
